# According to patent US5348946A, “Heteroanthracycline antitumor analogs” (Biochem Immunosystems, Inc., priority 1991, dated 1994):
# Key:
# CCRF-CEM = test: in vitro cytotoxicity evaluation, Leukemia; type: cell-based; conditions: Homo sapiens, 48 h, two days, sulforhodamine B
# Experimental: (§1) These assays were carried out at the Developmental Therapeutics Program, Division of Cancer Treatment, National Cancer Institute (Bethesda, Md., USA). The method consists of incubating varying concentrations of the drug with an inoculum of cells for two days.
# (§2) It should be noted that the first two parameters (GI50 and TGI) relate to antiproliferation effects while the third one (LC50) indicates true cytotoxicity.
# K-562 = test: in vitro cytotoxicity evaluation, Leukemia; type: cell-based; conditions: Homo sapiens, K562, 48 h, K-562, two days, sulforhodamine B
# Experimental: as §1, §2
# MOLT-4 = test: in vitro cytotoxicity evaluation, Leukemia; type: cell-based; conditions: Homo sapiens, 48 h, MOLT-4, two days, sulforhodamine B
# Experimental: as §1, §2
# RPMI-8226 = test: in vitro cytotoxicity evaluation, Leukemia; type: cell-based; conditions: Homo sapiens, 48 h, RPMI-8226, two days, sulforhodamine B
# Experimental: as §1, §2
# OVCAR-3 = test: in vitro cytotoxicity evaluation, Ovarian Cancer; type: cell-based; conditions: Homo sapiens, 48 h, OVCAR-3, two days, sulforhodamine B
# Experimental: as §1, §2
# SK-OV-3 = test: in vitro cytotoxicity evaluation, Ovarian Cancer; type: cell-based; conditions: Homo sapiens, 48 h, SK-OV-3, two days, sulforhodamine B
# Experimental: as §1, §2
# 786-O = test: in vitro cytotoxicity evaluation, Renal Cancer; type: cell-based; conditions: Homo sapiens, 786-0, 48 h, two days, sulforhodamine B
# Experimental: as §1, §2
# ACHN = test: in vitro cytotoxicity evaluation, Renal Cancer; type: cell-based; conditions: Homo sapiens, 48 h, two days, sulforhodamine B
# Experimental: as §1, §2
# CAKI-1 = test: in vitro cytotoxicity evaluation, Renal Cancer; type: cell-based; conditions: Homo sapiens, 48 h, CAKI-1, two days, sulforhodamine B
# Experimental: as §1, §2
# RXF-393 = test: in vitro cytotoxicity evaluation, Renal Cancer; type: cell-based; conditions: Homo sapiens, 48 h, RXF-393, two days, sulforhodamine B
# Experimental: as §1, §2
# RXF-631 = test: in vitro cytotoxicity evaluation, Renal Cancer; type: cell-based; conditions: Homo sapiens, 48 h, RXF-631, two days, sulforhodamine B
# Experimental: as §1, §2
# SN12C = test: in vitro cytotoxicity evaluation, Renal Cancer; type: cell-based; conditions: Homo sapiens, 48 h, two days, sulforhodamine B
# Experimental: as §1, §2
# TK-10 = test: in vitro cytotoxicity evaluation, Renal Cancer; type: cell-based; conditions: Homo sapiens, 48 h, TK-10, two days, sulforhodamine B
# Experimental: as §1, §2
# UO-31 = test: in vitro cytotoxicity evaluation, Renal Cancer; type: cell-based; conditions: Homo sapiens, 48 h, UO-31, two days, sulforhodamine B
# Experimental: as §1, §2
# 59 tumor cell lines = test: in vitro cytotoxicity evaluation, whole panel; type: cell-based, human
# Experimental: as §1, §2
# [1] = read-out: LOG10 G150 (GI50) (converted)
# [2] = read-out: Log10 LC50 (converted)
# [3] = read-out: Log10 TGI (converted)
smiles,measurement,setting,value
"COc1c2c(c(OC)c3c(=O)c4ccccc4sc13)CS(=O)(=O)[C@@H]2O[C@H]1C[C@H](N)[C@H](O)[C@H](C)O1 [BCH-255, (1S ) 1-daunosamine-4-11-dimethoxy-5-oxo-5-H-1,3-dihydrothioxantheno [2,3-c] thiophene-2,2-dioxide]",GI50,CCRF-CEM; [1],17.8 µM
same,CC50,CCRF-CEM; [2],97.7 µM
same,IC (total growth inhibition (TGI)),CCRF-CEM; [3],41.7 µM
same,GI50,K-562; [1],16.2 µM
same,CC50,K-562; [2],83.2 µM
same,IC (total growth inhibition (TGI)),K-562; [3],36.3 µM
same,GI50,MOLT-4; [1],19.1 µM
same,CC50,MOLT-4; [2],87.1 µM
same,IC (total growth inhibition (TGI)),MOLT-4; [3],40.7 µM
same,GI50,RPMI-8226; [1],16.2 µM
same,CC50,RPMI-8226; [2],> 100 µM
same,IC (total growth inhibition (TGI)),RPMI-8226; [3],40.7 µM
same,GI50,OVCAR-3; [1],15.5 µM
same,CC50,OVCAR-3; [2],64.6 µM
same,IC (total growth inhibition (TGI)),OVCAR-3; [3],31.6 µM
same,GI50,SK-OV-3; [1],19.1 µM
same,CC50,SK-OV-3; [2],85.1 µM
same,IC (total growth inhibition (TGI)),SK-OV-3; [3],40.7 µM
same,GI50,786-O; [1],16.2 µM
same,CC50,786-O; [2],58.9 µM
same,IC (total growth inhibition (TGI)),786-O; [3],30.9 µM
same,GI50,ACHN; [1],17.4 µM
same,CC50,ACHN; [2],61.7 µM
same,IC (total growth inhibition (TGI)),ACHN; [3],32.4 µM
same,GI50,CAKI-1; [1],19.5 µM
same,CC50,CAKI-1; [2],74.1 µM
same,IC (total growth inhibition (TGI)),CAKI-1; [3],38 µM
same,GI50,RXF-393; [1],17 µM
same,CC50,RXF-393; [2],72.4 µM
same,IC (total growth inhibition (TGI)),RXF-393; [3],35.5 µM
same,GI50,RXF-631; [1],20 µM
same,CC50,RXF-631; [2],> 100 µM
same,IC (total growth inhibition (TGI)),RXF-631; [3],46.8 µM
same,GI50,SN12C; [1],18.2 µM
same,CC50,SN12C; [2],72.4 µM
same,IC (total growth inhibition (TGI)),SN12C; [3],36.3 µM
same,GI50,TK-10; [1],25.7 µM
same,CC50,TK-10; [2],77.6 µM
same,IC (total growth inhibition (TGI)),TK-10; [3],44.7 µM
same,GI50,UO-31; [1],19.5 µM
same,CC50,UO-31; [2],91.2 µM
same,IC (total growth inhibition (TGI)),UO-31; [3],42.7 µM
same,DELTA of Log10 TGI,59 tumor cell lines; DELTA over the panel,0.13
same,CC50,"59 tumor cell lines; Homo sapiens, 48 h, MG MID over the panel, read-out: MG MID of Log10 LC50 (converted)",75.9 µM
same,IC (TGI),"59 tumor cell lines; Homo sapiens, 48 h, MG MID over the panel, read-out: MG MID of Log10 TGI (converted)",40.7 µM
same,GI50,"59 tumor cell lines; Homo sapiens, MG MID over the panel, read-out: MG MID of LOG10 G150 (GI50) (converted)",20 µM
same,RANGE of Log10 TGI,59 tumor cell lines; RANGE over the panel,0.52
same,cytotoxicity,59 tumor cell lines; solid tumors and leukemia cell lines,all the cell lines of solid tumors and leukemia showed cytotoxcity to the drug
same,spectrum of antitumor activity,59 tumor cell lines; tumor cell line panel,wide spectrum of antitumor activity
